Where two headings read alike, the source gives them in different places.
Assay: Pharmacokinetic and brain penetration study, intravenous and oral administration in rats
Type: in vivo
Settings: rat; for concentration at 8 h: read-out: Clast; for Vd: read-out: Vss
Experimental: Methods and Procedure: The study was conducted in agreement with procedures to assure data integrity and GLP principles. Three experimental groups, as outlined below, were included in the study:
Group 1: Exemplary compound 522A was administered via the IV route to three rats at a target dose level of 0.5 mg/kg. Blood and brain samples were collected at 2h after IV administration.
Group 2: Exemplary compound 522A was administered via the IV route to three rats (brain penetration group) at a target dose level of 0.5 mg/kg. Blood and brain samples were collected at 2h after IV administration.
Group 3: Exemplary compound 522A was orally administered to three rats at a target dose level of 1 mg/kg. Blood samples were collected up to 24h after oral administration.
All test formulations were prepared on the day of administration prior to dosing, stored at room temperature, and used as soon as possible. Formulations were prepared and administered by volume for both IV and oral dosing. Actual body weights were determined on the day of dose administration, and the dose volumes were adjusted to the weight of the animal at the time of dose administration.
Blood was collected into K3 EDTA tubes at each of the following time points post-administration: • Group 1 (ITS): 0.083, 0.33, 1, 2, 4, 6, 8, and 24 hours after dosing • Group 2 (ITS): 2 hours after dosing for terminal brain analysis • Group 3 (Oral): 0.250, 0.5, 1, 2, 4, 6, 8, and 24 hours after dosing
All blood samples were thoroughly but gently mixed following collection and then placed on wet ice. Within 0.5 h of collection, blood was centrifuged (3000 g for 10 minutes at approximately 4° C.). Within 0.5 hours, 20 μL of each plasma sample was transferred into micronic tubes containing 80 μL of 0.1N Hepes buffer (pH 7.0-7.5). Residual plasma was transferred in micronic tubes as a second aliquot.
Brain specimens were diluted with 4 volumes of 0. IN Hepes buffer and homogenized using the Precellys system. Blood and brain samples were assayed using an optimized method based on protein precipitation with acetonitrile followed by HPLC/MS-MS analysis. Given the unknown stability of analytes in blood and brain, Calibration standards (CS) and Quality control samples (QC) were prepared in blood and brain samples on the day of dosing and stored together with study samples. It is assumed this procedure accounted for any possible analyte degradation.
Study samples, CS, QC, and blanks were spiked with an internal standard (IS), to improve the precision of the assay. Study samples were analyzed together with CS, QC and blank samples (including double blanks). From the calibration curve, the linear range of the analytical method was determined and the lower/upper limits of quantitation were specified.
The results of blood and brain specimens were subjected to non-compartmental pharmacokinetic analysis using Phoenix WinNonlin 6.3, with the following parameters reported: Calculated concentration of test items in the corresponding formulation (expressed as mg/mL), dose levels (expressed as mg/kg) for each compound, actual collection times (expressed as hh: mM), blood concentrations (expressed as ng/ml) for each compound, brain concentrations (expressed as ng/g) for each compound, PK parameters (iv: Cmax, AUC, CLp, Vss, t1/2, if applicable; oral (po): Cmax, tmax, AUC, F %, Fa %, Eh, AUC BB ratio, if applicable) for each compound, and abnormal clinical signs and relevant findings, if any.

[1] = plasma, iv, 0.5 mg/kg, 0.5 mg/kg (Table 8)
[2] = plasma, iv, 0.5 mg/kg, 0.5 mg/kg (Table 9)
[3] = plasma, iv, 0.5 mg/kg, IV, 0.5 mg/kg (Table 8)
[4] = plasma, iv, 0.5 mg/kg, IV, 0.5 mg/kg (Table 9)

Clc1ccc(C23CNC(CO2)C3)cc1Cl (stereo not shown) [522A, 1-(3,4-dichlorophenyl)-2-oxa-5-azabicyclo[2.2.1]heptane] gave a Kp uu at 2 h (brain and blood, 0.5 mg/kg, two hours after IV administration, read-out: concentration ratio of unbound drug in brain to blood (kp, uu)) of 0.77, a Kp at 2 h (brain and plasma, 0.5 mg/kg, two hours after IV administration, read-out: mean brain-to-plasma ratio) of 4.96 and a Tmax (plasma, IV, 0.5 mg/kg (Table 8)) of 0.08 h. It also gave a Tmax (plasma, oral (PO), 1 mg/kg) of 2 h, a bioavailability (plasma, oral (PO), 1 mg/kg versus IV) of 30.8% and a Tlast (IV, 0.5 mg/kg (Table 8)) of 8 h. For the same compound, the Tlast (IV, 0.5 mg/kg (Table 9)) was 8 h, the concentration at 2 h (brain, iv, 0.5 mg/kg, two hours after IV administration, 0.5 mg/kg, read-out: free concentration in the brain) was 42.8 nM and the concentration at 2 h (brain, iv, 0.5 mg/kg, two hours after IV administration, 0.5 mg/kg, read-out: total concentration in the brain) was 1930 nM. For the same compound, the Tlast (oral (PO), 1 mg/kg) was 8 h, the AUC(0-inf) [1] was 1480 ng·h/mL and the AUC(0-t) [1] was 1460 ng·h/mL. For the same compound, the Cmax [1] was 1890 ng/mL, the clearance [1] was 5.71 mL/min/kg and the half-life [1] was 1.36 h. For the same compound, the AUC(0-inf) [2] was 799 ng·h/mL, the AUC(0-t) [2] was 772 ng·h/mL and the Cmax [2] was 878 ng/mL. It also gave a clearance [2] of 11.6 mL/min/kg, a half-life [2] of 1.65 h and a concentration at 8 h [3] of 9.32 ng/mL. For the same compound, the Vd [3] was 0.411 L/kg, the concentration at 8 h [4] was 10.6 ng/mL and the Vd [4] was 1.48 L/kg. It also gave a concentration at 2 h (plasma, iv, 0.5 mg/kg, two hours after IV administration, 0.5 mg/kg, read-out: free concentration in plasma) of 71.3 nM, a concentration at 2 h (plasma, iv, 0.5 mg/kg, two hours after IV administration, 0.5 mg/kg, read-out: total plasma concentration) of 594 nM and an AUC(0-inf) (plasma, po, 1 mg/kg, oral (PO)) of 509 ng·h/mL. For the same compound, the AUC(0-t) (plasma, po, 1 mg/kg, oral (PO)) was 442 ng·h/mL, the Cmax (plasma, po, 1 mg/kg, oral (PO)) was 102 ng/mL and the half-life (plasma, po, 1 mg/kg, oral (PO)) was 2.42 h. It also gave a concentration at 8 h (plasma, po, 1 mg/kg, oral (PO), 1 mg/kg) of 19.3 ng/mL.

From US12595269B2, “Morpholine-like monoamine releasers” (Solvonis Therapeutics Ireland Holdings Limited, priority 2022, dated 2026)
